Experimental findings from ChEMBL document CHEMBL5661943, “ASAP - In vitro antiviral effect” (2024) are described below.

Test [1] concerns Zika virus. Briefly: Functional CPE-based assay to measure dose dependent changes in antiviral-drug inhibitory efficacy against Zika virus MR766 in Vero E6 miRFP670 cells (cotreated with P-gp inhibitor, CP100356). Cells are treated with antiviral candidates that are serially diluted. EC50 is reported via analysis of MTS assay as a readout of CPE. The assay has been performed by KU Leuven. The format is organism-based, Chlorocebus sabaeus, Vero C1008. The following applies: for EC90: P-gp concentration 500 nM, P-gp inhibitor CP100356.

The subject of test [2] is dengue virus type 2. Briefly: Functional immunofluorescence assay to measure dose dependent changes in antiviral-drug inhibitory efficacy against Dengue virus type 2 Thailand/16681/84 in Vero E6/TMPRSS2 cells (cotreated with P-gp inhibitor, Elacridar). Cells are treated with antiviral candidates that are serially diluted, following infection, cells are fixed. EC50 is reported via analysis of immunofluorescence staining. The assay has been performed by Icahn School of Medicine at Mount Sinai. The format is organism-based, Chlorocebus sabaeus, VeroE6/TMPRSS2. The following applies: Dengue virus; for EC90: P-gp concentration 2 uM, P-gp inhibitor Elacidar.

In test [3] the test system is dengue virus type 2. Briefly: Functional assay to measure dose dependent changes in antiviral-drug inhibitory efficacy against Dengue virus type 2 New Guinea C in Vero E6 miRFP670 cells (cotreated with P-gp inhibitor, CP100356). Cells are treated with antiviral candidates that are serially diluted, following infection, cells are fixed. EC50 is reported via analysis of fluorescence intensity using high-content imager. The …. The format is organism-based, Chlorocebus sabaeus, Vero C1008. As to conditions: for EC90: P-gp concentration 500 nM, P-gp inhibitor CP100356.

The subject of test [4] is Zika virus. Briefly: EC50 is reported via analysis of immunofluorescence staining. The assay has been performed by Icahn School of Medicine at Mount Sinai. The format is functional, organism-based, Chlorocebus sabaeus, VeroE6/TMPRSS2. As to conditions: Zika virus.

Several values for one entry are separate records, joined by “and”; a condition that tells them apart may be missing. Equal entries are not always repeated.

As for `O=C(NC[C@H]1CCCO1)[C@H](Nc1ccc2c(c1)CNC2)c1cc(Cl)cc2[nH]ncc12`, the EC50 with Zika virus [1] (Zika virus, Vero C1008) is above 50 µM; with dengue virus type 2 [2] (VeroE6/TMPRSS2), above 16.7 µM; with dengue virus type 2 [3] (Dengue virus, Vero C1008), above 6.25 µM; in the test on Zika virus [4] (VeroE6/TMPRSS2), 0.309 µM. The EC90 is above 50 µM with Zika virus [1] (Zika virus, Vero C1008, Baseline response 0 %, Hill slope 0.096, Maximum measured 37.493 %, Maximum response 100 %, Minimum measured 16.803 %, R squared 0.054); above 16.7 µM in the test with dengue virus type 2 [2] (VeroE6/TMPRSS2, Maximum measured 188.503 %, Minimum measured 79.522 %); above 6.25 µM with dengue virus type 2 [3] (Dengue virus, Vero C1008, Maximum measured 107.029 %, Minimum measured 98.467 %); above 16.7 µM with Zika virus [4] (VeroE6/TMPRSS2, Baseline response 0 %, Hill slope -0.364, Maximum measured 91.96 %, Maximum response 100 %, Minimum measured 21.463 %, P-gp concentration 2 uM, R squared 0.587, P-gp inhibitor Elacidar).

Take `Cn1cc2cc(Cl)cc(C(=O)Nc3ccc4c(c3)CNC4)c2n1`: the EC50 was 0.514 µM in the test on Zika virus [1] (Zika virus, Vero C1008); above 5.56 µM with dengue virus type 2 [2] (VeroE6/TMPRSS2); 0.704 µM in the test on dengue virus type 2 [3] (Dengue virus, Vero C1008); 0.643 µM in the test on Zika virus [4] (VeroE6/TMPRSS2). For the same molecule, the EC90 is above 0.781 µM in the test with Zika virus [1] (Zika virus, Vero C1008, Baseline response 0 %, Hill slope 4.196, Maximum measured 85.26 %, Maximum response 100 %, Minimum measured 23.993 %, R squared 0.942); above 5.56 µM with dengue virus type 2 [2] (VeroE6/TMPRSS2, Maximum measured 98.349 %, Minimum measured 47.733 %); below 0.391 µM with dengue virus type 2 [3] (Dengue virus, Vero C1008, Baseline response 0 %, Hill slope 0.764, Maximum measured 122.857 %, Maximum response 100 %, Minimum measured 34.33 %, R squared 0.405); above 5.56 µM with Zika virus [4] (VeroE6/TMPRSS2, Baseline response 0 %, Hill slope -0.814, Maximum measured 136.159 %, Maximum response 100 %, Minimum measured 33.863 %, P-gp concentration 2 uM, R squared 0.555, P-gp inhibitor Elacidar).

Turning to `Cn1cc(CCc2nc3c(C(=O)Nc4ccc5c(c4)CNC5)cc(Cl)cc3[nH]2)cn1`, the EC50 in the test on Zika virus [1] (Zika virus, Vero C1008) is above 50 µM; with dengue virus type 2 [2] (VeroE6/TMPRSS2), above 16.7 µM; in the test on dengue virus type 2 [3] (Dengue virus, Vero C1008), above 50 µM; in the test on Zika virus [4] (VeroE6/TMPRSS2), above 16.7 µM. In addition, the EC90 is above 50 µM with Zika virus [1] (Zika virus, Vero C1008, Baseline response 0 %, Hill slope 0.081, Maximum measured 22.254 %, Maximum response 100 %, Minimum measured 2.34 %, R squared 0.041); above 16.7 µM in the test with dengue virus type 2 [2] (VeroE6/TMPRSS2, Baseline response 0 %, Hill slope -0.053, Maximum measured 79.122 %, Maximum response 100 %, Minimum measured 42.376 %, R squared 0.043); above 50 µM in the test on dengue virus type 2 [3] (Dengue virus, Vero C1008, Maximum measured 132.966 %, Minimum measured 89.816 %); above 16.7 µM in the test with Zika virus [4] (VeroE6/TMPRSS2, Maximum measured 69.995 %, Minimum measured 22.891 %, P-gp concentration 2 uM, P-gp inhibitor Elacidar).

Consider `CNC(=O)[C@H](Nc1ccc2c(c1)CNC2)c1cc(Cl)cc2[nH]ncc12`, for which the EC50 was above 50 µM with Zika virus [1] (Zika virus, Vero C1008); above 50 µM with dengue virus type 2 [2] (VeroE6/TMPRSS2); above 50 µM in the test with dengue virus type 2 [3] (Dengue virus, Vero C1008); above 50 µM in the test on Zika virus [4] (VeroE6/TMPRSS2). In addition, the EC90 in the test with Zika virus [1] (Zika virus, Vero C1008, Baseline response 0 %, Hill slope 0.1, Maximum measured 6.056 %, Maximum response 100 %, Minimum measured 1.325 %, R squared 0.024) is above 50 µM; with dengue virus type 2 [2] (VeroE6/TMPRSS2, Maximum measured 241.837 %, Minimum measured 83.65 %), above 50 µM; in the test with dengue virus type 2 [3] (Dengue virus, Vero C1008, Baseline response 0 %, Hill slope 0.363, Maximum measured 102.287 %, Maximum response 100 %, Minimum measured 71.268 %, R squared 0.122), above 50 µM; in the test with Zika virus [4] (VeroE6/TMPRSS2, Maximum measured 122.029 %, Minimum measured 43.627 %, P-gp concentration 2 uM, P-gp inhibitor Elacidar), above 50 µM; in the test with Zika virus [4] (VeroE6/TMPRSS2, Baseline response 0 %, Hill slope 0.082, Maximum measured 101.866 %, Maximum response 100 %, Minimum measured 51.114 %, P-gp concentration 2 uM, R squared 0.025, P-gp inhibitor Elacidar), above 50 µM.

In the case of `O=C(NC[C@H]1CCCO1)[C@H](Nc1ccc2c(c1)CNC2)c1cc(Cl)cc(C2CC2)c1`, the EC50 was above 25 µM in the test with Zika virus [1] (Zika virus, Vero C1008); above 50 µM with dengue virus type 2 [2] (VeroE6/TMPRSS2); above 50 µM in the test on dengue virus type 2 [3] (Dengue virus, Vero C1008); above 5.56 µM with Zika virus [4] (VeroE6/TMPRSS2). In addition, the EC90 was above 25 µM with Zika virus [1] (Zika virus, Vero C1008, Baseline response 0 %, Hill slope 2.187, Maximum measured 41.665 %, Maximum response 100 %, Minimum measured -0.442 %, R squared 0.938); above 50 µM in the test on dengue virus type 2 [2] (VeroE6/TMPRSS2, Maximum measured 244.293 %, Minimum measured 137.827 %); above 50 µM in the test with dengue virus type 2 [3] (Dengue virus, Vero C1008, Baseline response 0 %, Hill slope -0.736, Maximum measured 108.993 %, Maximum response 100 %, Minimum measured 54.851 %, R squared 0.259); above 5.56 µM in the test with Zika virus [4] (VeroE6/TMPRSS2, Maximum measured 140.093 %, Minimum measured 93.076 %, P-gp concentration 2 uM, P-gp inhibitor Elacidar); above 5.56 µM in the test on Zika virus [4] (VeroE6/TMPRSS2, Baseline response 0 %, Hill slope 0.091, Maximum measured 92.664 %, Maximum response 100 %, Minimum measured 73.777 %, P-gp concentration 2 uM, R squared 0.029, P-gp inhibitor Elacidar).

With `Cc1c(C(=O)Nc2cc([C@H]3CCOC3)ccn2)cc(C2CC2)n1C`, the EC50 in the test on Zika virus [1] (Zika virus, Vero C1008) is above 50 µM; with dengue virus type 2 [2] (VeroE6/TMPRSS2) it was above 50 µM; in the test on dengue virus type 2 [3] (Dengue virus, Vero C1008), above 50 µM; with Zika virus [4] (VeroE6/TMPRSS2) it was 0.157 µM. The EC90 in the test on Zika virus [1] (Zika virus, Vero C1008, Maximum measured 3.949 %, Minimum measured -5.577 %) is above 50 µM; in the test on Zika virus [1] (Zika virus, Vero C1008, Maximum measured -8.54 %, Minimum measured -21.261 %), above 50 µM; with dengue virus type 2 [2] (VeroE6/TMPRSS2, Maximum measured 144.829 %, Minimum measured 95.742 %), above 50 µM; with dengue virus type 2 [3] (Baseline response 0 %, Hill slope 0.336, Maximum measured 108.09 %, Maximum response 100 %, Minimum measured 73.455 %, R squared 0.31) it was above 50 µM; in the test on dengue virus type 2 [3] (Dengue virus, Vero C1008, Baseline response 0 %, Hill slope -3.691, Maximum measured 104.755 %, Maximum response 100 %, Minimum measured 84.933 %, R squared 0.225), above 50 µM; in the test with Zika virus [4] (VeroE6/TMPRSS2) it was 49.5 µM.

Consider `N[C@H]1Cc2ccc(NC(=O)c3cc(Cl)cc4[nH]ncc34)cc2C1`, for which the EC50 with Zika virus [1] (Zika virus, Vero C1008) was above 50 µM; in the test on dengue virus type 2 [2] (VeroE6/TMPRSS2), above 50 µM; with dengue virus type 2 [3] (Dengue virus, Vero C1008), above 50 µM; with Zika virus [4] (VeroE6/TMPRSS2) it was 6.4 µM. Further, the EC90 was above 50 µM in the test with Zika virus [1] (Zika virus, Vero C1008, Baseline response 0 %, Hill slope 8.874, Maximum measured 2.747 %, Maximum response 100 %, Minimum measured -3.726 %, R squared 0.015); above 50 µM with dengue virus type 2 [2] (VeroE6/TMPRSS2, Baseline response 0 %, Hill slope -1.504, Maximum measured 137.122 %, Maximum response 100 %, Minimum measured 76.636 %, R squared 0.034); above 50 µM in the test with dengue virus type 2 [3] (Dengue virus, Vero C1008, Baseline response 0 %, Hill slope -0.493, Maximum measured 107.038 %, Maximum response 100 %, Minimum measured 74.642 %, R squared 0.117); above 50 µM in the test with Zika virus [4] (VeroE6/TMPRSS2, Baseline response 0 %, Hill slope -0.367, Maximum measured 76.386 %, Maximum response 70 %, Minimum measured 22.981 %, P-gp concentration 2 uM, R squared 0.54, P-gp inhibitor Elacidar).

Turning to `Cc1c(C(=O)Nc2cc(-c3cccnc3)ccn2)cc(C2CC2)n1C`, the EC90 in the test on Zika virus [1] (Baseline response 0 %, Hill slope 10.672, Maximum measured 18.054 %, Maximum response 100 %, Minimum measured -2.868 %, R squared 0.771) was above 50 µM; with Zika virus [1] (Zika virus, Vero C1008, Baseline response 0 %, Hill slope 1.591, Maximum measured 7.654 %, Maximum response 100 %, Minimum measured -2.289 %, R squared 0.158), above 50 µM; in the test on dengue virus type 2 [2] (VeroE6/TMPRSS2, Baseline response 0 %, Hill slope -10.528, Maximum measured 161.281 %, Maximum response 100 %, Minimum measured 29.52 %, R squared 0.091) it was above 50 µM; with dengue virus type 2 [3] (Baseline response 0 %, Hill slope 0.498, Maximum measured 89.901 %, Maximum response 100 %, Minimum measured 65.385 %, R squared 0.493), above 6.25 µM; in the test with dengue virus type 2 [3] (Baseline response 0 %, Hill slope 0.771, Maximum measured 124.592 %, Maximum response 100 %, Minimum measured 47.777 %, R squared 0.6) it was below 0.391 µM; in the test on Zika virus [4] (VeroE6/TMPRSS2), 32.7 µM. Besides, the EC50 in the test with Zika virus [1] (Zika virus, Vero C1008) is above 50 µM; in the test with dengue virus type 2 [2] (VeroE6/TMPRSS2), 46 µM; in the test with dengue virus type 2 [3] (vero c1008), 0.83 µM and > 6.25 µM; in the test on Zika virus [4] (VeroE6/TMPRSS2), 14.5 µM.
